{"source": "ChEMBL document CHEMBL4665705", "about": "(J Med Chem, 2020)", "key": {"[1]": {"assay": "Fraction unbound in Beagle dog blood measured after 4 hrs by LC-MS/MS analysis", "format": "ADME, tissue-based, Canis lupus familiaris"}, "[2]": {"assay": "Oral bioavailability in Beagle dog", "format": "ADME, organism-based, Canis lupus familiaris", "settings": "in vivo"}, "[3]": {"assay": "Volume of distribution at steady state in Beagle dog at 0.5 mg/kg, iv administered as 1 hr infusion on day 1 and day 7 to achieve a target dose of 1 mg/kg by LC-MS/MS analysis", "format": "ADME, organism-based, Canis lupus familiaris", "settings": "in vivo, dose 0.5-1 mg/kg, time 7 day, read-out: Vdss"}, "[4]": {"assay": "physchem", "settings": "phosphate buffered saline, pH 7.4"}, "[5]": {"assay": "Intrinsic clearance in Wistar Han rat hepatocytes assessed per g tissue at 0.5 uM measured up to 60 mins by LC-MS/MS analysis", "format": "ADME, cell-based, Hepatocyte", "settings": "1 h, time <=45 min"}, "[6]": {"molecular_target": "Bromodomain-containing protein 3 (Homo sapiens, UniProt Q15059, Y348A)", "sequence (Q15059 2-726 Y348A limits assumed)": "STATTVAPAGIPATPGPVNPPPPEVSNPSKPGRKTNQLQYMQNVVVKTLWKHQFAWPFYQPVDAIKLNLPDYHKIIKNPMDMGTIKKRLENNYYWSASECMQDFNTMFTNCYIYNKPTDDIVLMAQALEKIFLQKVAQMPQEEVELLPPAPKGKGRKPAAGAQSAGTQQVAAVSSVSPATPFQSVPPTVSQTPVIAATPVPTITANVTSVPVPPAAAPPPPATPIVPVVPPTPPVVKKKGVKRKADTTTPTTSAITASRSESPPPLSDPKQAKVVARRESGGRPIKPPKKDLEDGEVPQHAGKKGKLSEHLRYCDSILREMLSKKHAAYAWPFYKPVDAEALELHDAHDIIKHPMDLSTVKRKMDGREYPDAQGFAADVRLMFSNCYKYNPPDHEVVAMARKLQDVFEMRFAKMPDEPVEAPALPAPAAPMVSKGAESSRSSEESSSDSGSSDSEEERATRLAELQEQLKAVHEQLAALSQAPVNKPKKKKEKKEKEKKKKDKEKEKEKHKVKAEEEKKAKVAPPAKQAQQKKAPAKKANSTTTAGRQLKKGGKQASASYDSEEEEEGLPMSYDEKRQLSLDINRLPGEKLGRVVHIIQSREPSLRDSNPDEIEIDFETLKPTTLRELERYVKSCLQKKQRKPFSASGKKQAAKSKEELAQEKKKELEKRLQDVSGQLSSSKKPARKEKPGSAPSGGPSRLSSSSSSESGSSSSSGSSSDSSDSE", "assay": "Displacement of Alexa Fluor 647 labelled ligand from 6His-Thr tagged BRD3 BD1/BD2 Y348A mutant (1 to 435 residues) (unknown origin) measured after 30 mins by TR-FRET assay"}, "[7]": {"assay": "Half life in Beagle dog at 0.5 mg/kg, iv administered as 1 hr infusion on day 1 and day 7 to achieve a target dose of 1 mg/kg by LC-MS/MS analysis", "format": "ADME, organism-based, Canis lupus familiaris", "settings": "in vivo, dose 0.5-1 mg/kg, time 7 day"}, "[8]": {"assay": "Solubility of the compound in pH 6.5 FaSSIF at 125 ug/ml measured after 16 hrs by HPLC analysis", "format": "physicochemical", "settings": "dose 125 µg/ml"}, "[9]": {"molecular_target": "Albumin (Homo sapiens, UniProt P02768)", "sequence (P02768 whole entry)": "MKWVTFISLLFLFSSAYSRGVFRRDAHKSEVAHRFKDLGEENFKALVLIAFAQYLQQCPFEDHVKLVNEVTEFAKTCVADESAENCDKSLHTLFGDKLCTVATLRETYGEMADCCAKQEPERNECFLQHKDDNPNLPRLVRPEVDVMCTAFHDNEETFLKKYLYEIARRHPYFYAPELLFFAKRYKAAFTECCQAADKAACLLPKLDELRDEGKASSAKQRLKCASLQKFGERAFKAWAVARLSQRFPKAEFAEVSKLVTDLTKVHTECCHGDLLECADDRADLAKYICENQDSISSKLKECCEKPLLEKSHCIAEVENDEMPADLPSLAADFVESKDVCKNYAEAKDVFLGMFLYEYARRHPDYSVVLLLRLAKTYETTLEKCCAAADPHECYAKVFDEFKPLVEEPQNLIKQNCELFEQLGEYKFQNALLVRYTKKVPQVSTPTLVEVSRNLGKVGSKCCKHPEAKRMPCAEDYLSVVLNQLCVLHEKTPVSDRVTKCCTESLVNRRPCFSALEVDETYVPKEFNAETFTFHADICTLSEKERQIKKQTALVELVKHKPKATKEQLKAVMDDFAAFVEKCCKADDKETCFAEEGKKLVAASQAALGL", "assay": "Binding affinity to HSA relative to control", "format": "ADME", "settings": "isolated protein"}, "[10]": {"assay": "Fraction unbound in Wistar Han rat blood measured after 4 hrs by LC-MS/MS analysis", "format": "ADME, tissue-based"}, "[11]": {"molecular_target": "Bromodomain-containing protein 2 (Homo sapiens, UniProt P25440, Y386A)", "sequence (P25440 whole entry Y386A)": "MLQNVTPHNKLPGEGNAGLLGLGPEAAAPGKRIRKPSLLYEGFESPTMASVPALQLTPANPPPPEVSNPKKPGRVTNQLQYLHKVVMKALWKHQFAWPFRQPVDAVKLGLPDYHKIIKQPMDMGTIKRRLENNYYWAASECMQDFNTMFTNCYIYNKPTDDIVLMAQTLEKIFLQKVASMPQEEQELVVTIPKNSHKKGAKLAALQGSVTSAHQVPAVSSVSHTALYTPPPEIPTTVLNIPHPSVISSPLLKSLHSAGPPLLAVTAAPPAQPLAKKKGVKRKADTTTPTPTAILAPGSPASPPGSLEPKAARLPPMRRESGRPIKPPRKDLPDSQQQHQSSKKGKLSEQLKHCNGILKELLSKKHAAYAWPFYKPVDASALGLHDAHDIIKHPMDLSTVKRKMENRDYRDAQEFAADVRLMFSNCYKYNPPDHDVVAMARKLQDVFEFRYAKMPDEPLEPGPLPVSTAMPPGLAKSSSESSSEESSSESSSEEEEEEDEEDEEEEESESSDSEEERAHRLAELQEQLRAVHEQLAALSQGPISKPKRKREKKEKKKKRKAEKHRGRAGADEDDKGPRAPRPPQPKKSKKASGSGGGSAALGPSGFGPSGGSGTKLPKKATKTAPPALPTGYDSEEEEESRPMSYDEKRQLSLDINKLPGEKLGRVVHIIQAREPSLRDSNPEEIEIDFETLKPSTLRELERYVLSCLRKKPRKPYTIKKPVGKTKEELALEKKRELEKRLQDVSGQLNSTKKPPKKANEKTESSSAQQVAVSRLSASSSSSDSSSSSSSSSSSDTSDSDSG"}, "[12]": {"assay": "Volume of distribution at steady state in Wistar Han rat at 1 mg/kg, iv administered as 1 hr infusion or 3 mg/kg, po administered via gavage by LC-MS/MS analysis", "format": "ADME, organism-based", "settings": "in vivo, read-out: Vdss"}, "[13]": {"assay": "Oral bioavailability in Wistar Han rat at 3 mg/kg by LC-MS/MS analysis", "format": "ADME, organism-based", "settings": "in vivo"}, "[14]": {"assay": "Intrinsic clearance in Beagle dog hepatocytes assessed per g tissue at 0.5 uM measured up to 120 mins by LC-MS/MS analysis", "format": "ADME, cell-based, Canis lupus familiaris, Hepatocyte", "settings": "2 h"}, "[15]": {"molecular_target": "Bromodomain-containing protein 3 (Homo sapiens, UniProt Q15059, Y73A)", "sequence (Q15059 2-726 Y73A limits assumed)": "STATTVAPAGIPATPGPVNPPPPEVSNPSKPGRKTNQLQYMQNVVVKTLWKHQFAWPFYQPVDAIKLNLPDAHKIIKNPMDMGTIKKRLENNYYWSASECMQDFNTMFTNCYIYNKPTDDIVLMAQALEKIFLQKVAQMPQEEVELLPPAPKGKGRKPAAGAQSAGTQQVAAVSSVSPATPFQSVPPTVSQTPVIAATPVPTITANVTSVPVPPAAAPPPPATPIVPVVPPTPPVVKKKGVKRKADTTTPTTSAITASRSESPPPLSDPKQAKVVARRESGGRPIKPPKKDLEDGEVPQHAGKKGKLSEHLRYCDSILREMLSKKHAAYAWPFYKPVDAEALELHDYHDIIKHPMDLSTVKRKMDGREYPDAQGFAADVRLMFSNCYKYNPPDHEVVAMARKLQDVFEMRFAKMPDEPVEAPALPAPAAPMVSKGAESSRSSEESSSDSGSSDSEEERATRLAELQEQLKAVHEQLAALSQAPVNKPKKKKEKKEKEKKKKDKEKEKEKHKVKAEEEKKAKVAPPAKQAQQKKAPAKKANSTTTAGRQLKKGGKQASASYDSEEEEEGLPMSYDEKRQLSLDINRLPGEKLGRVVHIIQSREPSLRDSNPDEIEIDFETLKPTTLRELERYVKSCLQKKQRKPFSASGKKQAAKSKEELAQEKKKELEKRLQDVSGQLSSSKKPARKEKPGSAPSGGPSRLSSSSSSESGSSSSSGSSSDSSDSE", "assay": "Displacement of Alexa Fluor 647 labelled ligand from 6His-Thr tagged BRD3 BD2/BD1 Y73A mutant (1 to 435 residues) (unknown origin) measured after 30 mins by TR-FRET assay"}, "[16]": {"assay": "in vitro", "settings": "PAMPA, pH 7.4"}, "[17]": {"assay": "Clearance in Wistar Han rat at 1 mg/kg, iv administered as 1 hr infusion or 3 mg/kg, po administered via gavage by LC-MS/MS analysis relative to liver blood flow", "format": "ADME, organism-based", "settings": "in vivo"}, "[18]": {"assay": "Intrinsic clearance in human hepatocytes assessed per g tissue at 0.5 uM measured up to 60 mins by LC-MS/MS analysis", "format": "ADME, cell-based, Hepatocyte", "settings": "1 h, time <=45 min"}, "[19]": {"molecular_target": "Cytochrome P450 3A4 (Homo sapiens, UniProt P08684)", "sequence (P08684 whole entry)": "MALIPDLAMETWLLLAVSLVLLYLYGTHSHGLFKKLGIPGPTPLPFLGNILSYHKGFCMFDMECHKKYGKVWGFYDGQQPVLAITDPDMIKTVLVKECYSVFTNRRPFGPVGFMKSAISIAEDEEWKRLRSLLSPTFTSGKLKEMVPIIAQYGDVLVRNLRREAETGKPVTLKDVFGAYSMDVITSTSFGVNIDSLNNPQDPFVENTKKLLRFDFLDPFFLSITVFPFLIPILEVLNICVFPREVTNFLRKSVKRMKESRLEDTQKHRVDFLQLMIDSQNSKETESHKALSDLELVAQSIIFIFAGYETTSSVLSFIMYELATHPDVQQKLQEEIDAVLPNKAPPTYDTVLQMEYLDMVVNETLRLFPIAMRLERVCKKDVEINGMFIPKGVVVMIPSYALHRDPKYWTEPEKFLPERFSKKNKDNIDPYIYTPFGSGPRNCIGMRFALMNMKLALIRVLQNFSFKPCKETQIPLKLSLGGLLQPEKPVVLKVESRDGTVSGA", "assay": "Metabolism-dependent inhibition of CYP3A4 (unknown origin)", "format": "ADME"}, "[20]": {"assay": "Clearance in Beagle dog at 0.5 mg/kg, iv administered as 1 hr infusion on day 1 and day 7 to achieve a target dose of 1 mg/kg by LC-MS/MS analysis", "format": "ADME, organism-based, Canis lupus familiaris", "settings": "in vivo, dose 0.5-1 mg/kg, time 7 day"}, "[21]": {"molecular_target": "Bromodomain-containing protein 2 (Homo sapiens, UniProt P25440, Y113A)", "sequence (P25440 whole entry Y113A, the tested form may be a part)": "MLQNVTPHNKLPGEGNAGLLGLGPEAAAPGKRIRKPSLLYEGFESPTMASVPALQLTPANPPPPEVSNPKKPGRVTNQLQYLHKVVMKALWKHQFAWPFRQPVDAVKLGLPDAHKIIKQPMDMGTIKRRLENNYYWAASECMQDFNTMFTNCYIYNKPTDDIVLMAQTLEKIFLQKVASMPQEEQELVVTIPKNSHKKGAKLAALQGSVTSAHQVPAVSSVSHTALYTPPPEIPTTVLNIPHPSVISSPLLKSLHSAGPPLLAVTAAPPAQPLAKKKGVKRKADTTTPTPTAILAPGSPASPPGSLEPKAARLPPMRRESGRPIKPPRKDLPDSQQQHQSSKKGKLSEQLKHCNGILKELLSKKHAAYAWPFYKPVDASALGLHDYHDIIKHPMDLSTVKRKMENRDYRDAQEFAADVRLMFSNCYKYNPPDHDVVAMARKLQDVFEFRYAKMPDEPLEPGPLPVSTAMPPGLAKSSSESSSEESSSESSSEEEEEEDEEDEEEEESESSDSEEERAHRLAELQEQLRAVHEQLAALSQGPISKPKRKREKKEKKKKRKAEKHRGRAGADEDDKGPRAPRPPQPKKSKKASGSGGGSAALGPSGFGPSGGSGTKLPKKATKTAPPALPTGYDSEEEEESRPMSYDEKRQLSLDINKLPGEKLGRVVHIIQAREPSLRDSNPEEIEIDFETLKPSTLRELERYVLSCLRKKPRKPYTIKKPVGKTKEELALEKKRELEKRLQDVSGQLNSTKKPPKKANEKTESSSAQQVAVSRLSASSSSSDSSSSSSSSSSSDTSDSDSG", "assay": "Displacement of Alexa Fluor 647 labelled ligand from 6His-Thr tagged BRD2 BD2/BD1 Y113A mutant (1 to 473 residues) (unknown origin) measured after 30 mins by TR-FRET assay"}, "[22]": {"molecular_target": "Bromodomain testis-specific protein (Homo sapiens, UniProt Q58F21, Y66A)", "assay": "Displacement of Alexa Fluor 647 labelled ligand from 6His-Thr tagged BRDT BD2/BD1 Y66A mutant (1 to 397 residues) (unknown origin) measured after 30 mins by TR-FRET assay"}, "[23]": {"assay": "Clearance in Wistar Han rat at 1 mg/kg, iv administered as 1 hr infusion or 3 mg/kg, po administered via gavage by LC-MS/MS analysis", "format": "ADME, organism-based", "settings": "in vivo"}, "[24]": {"assay": "Clearance in Beagle dog at 0.5 mg/kg, iv administered as 1 hr infusion on day 1 and day 7 to achieve a target dose of 1 mg/kg by LC-MS/MS analysis relative to liver blood flow", "format": "ADME, organism-based, Canis lupus familiaris", "settings": "in vivo, 168 h, dose 0.5-1 mg/kg, time 7 day"}, "[25]": {"assay": "Half life in Wistar Han rat at 1 mg/kg, iv administered as 1 hr infusion or 3 mg/kg, po administered via gavage by LC-MS/MS analysis", "format": "ADME, organism-based", "settings": "in vivo"}, "[26]": {"assay": "Fraction unbound in human blood measured after 4 hrs by LC-MS/MS analysis", "format": "ADME, tissue-based"}, "[27]": {"settings": "buffer, pH 7.4"}, "[28]": {"test_system": "Blood", "assay": "Inhibition of LPS-induced MCP1 production in human whole blood preincubated for 30 mins followed by LPS addition measured after 24 hrs by immunoassay", "format": "functional, tissue-based"}}, "data": [{"compound": "CC(=O)Nc1c(F)cc(C(=O)N[C@H]2CC[C@H](O)CC2)cc1O[C@@H](C)c1ccccc1", "note": "[GSK046]", "values": [{"measurement": "fraction unbound at 4 h", "setting": "[1]", "result": 0.33}, {"measurement": "bioavailability", "setting": "[2]", "result": 66, "unit": "%"}, {"measurement": "Vd", "setting": "[3]", "result": 0.91, "unit": "L/kg"}, {"measurement": "solubility kinetic", "setting": "[4]", "result": 91, "unit": "µg/mL"}, {"measurement": "CLH", "setting": "[5]", "result": "< 0.8", "unit": "mL/min"}, {"measurement": "IC50", "setting": "[6]", "result": 39800, "unit": "nM"}, {"measurement": "half-life", "setting": "[7]", "result": 42, "unit": "min"}, {"measurement": "solubility at 16 h", "setting": "[8]", "result": 996, "unit": "µg/mL"}, {"measurement": "Activity", "setting": "[9]", "result": 47, "unit": "%"}, {"measurement": "fraction unbound at 4 h", "setting": "[10]", "result": 0.44}, {"measurement": "IC50", "setting": "[11]", "result": 10000, "unit": "nM"}, {"measurement": "Vd", "setting": "[12]", "result": 0.91, "unit": "L/kg"}, {"measurement": "bioavailability", "setting": "[13]", "result": 31, "unit": "%"}, {"measurement": "CLH", "setting": "[14]", "result": "< 1.26", "unit": "mL/min"}, {"measurement": "IC50", "setting": "[15]", "result": 100, "unit": "nM"}, {"measurement": "Papp", "setting": "[16]", "result": 1.6, "unit": "×10⁻⁶ cm/s"}, {"measurement": "CL", "setting": "[17]", "result": 46, "unit": "%"}, {"measurement": "CLH", "setting": "[18]", "result": "< 0.45", "unit": "mL/min"}, {"measurement": "IC50", "setting": "[19]", "result": "> 39800", "unit": "nM"}, {"measurement": "clearance", "setting": "[20]", "result": 20, "unit": "mL/min/kg"}, {"measurement": "IC50", "setting": "[21]", "result": 251, "unit": "nM"}, {"measurement": "IC50", "setting": "[22]", "result": 200, "unit": "nM"}, {"measurement": "clearance", "setting": "[23]", "result": 36, "unit": "mL/min/kg"}, {"measurement": "CL", "setting": "[24]", "result": 36, "unit": "%"}, {"measurement": "half-life", "setting": "[25]", "result": 30, "unit": "min"}, {"measurement": "fraction unbound at 4 h", "setting": "[26]", "result": 0.32}, {"measurement": "CHI", "setting": "[27]", "result": 2.8}, {"measurement": "IC50", "setting": "[28]", "result": 31.6, "unit": "nM"}]}]}
